B1: GA733 protein: GA733 protein administered to control animals (protein, UniProt P16422 24-314, looked up)
Epithelial cell adhesion …: QEECVCENYKLAVNCFVNNNRQCQCTSVGAQNTVICSKLAAKCLVMKAEMNGSKLGRRAKPEGALQNNDGLYDPDCDESGLFKAKQCNGTSMCWCVNTAGVRRTDKDTEITCSERVRTYWIIIELKHKAREKPYDSKSLRTALQKEITTRYQLDPKFITSILYENNVITIDLVQNSSQKTQNDVDIADVAYYFEKDVKGESLFHSKKMDLTVNGEQLDLDPGQTLIYYVDEKAPEFSMQGLKAGVIAVIVVVVIAVVAGIVVLVISRKKRMAKYEKAEIKEMGEMHRELNA

Legend:
[1] = tested on: tumor cells transfected with DNA encoding neu; experiment: Tumor challenge model, tumor cells transfected with DNA encoding neu
Source text: In experiments designed to compare the immunogenic response elicited by genetic vaccination and protein vaccination, animal models were designed using tumor cells that specifically express a foreign target protein. Three immune competent mouse models have been developed which express foreign antigens. Three clonal tumor cell lines which are derived from the Balb/c mouse strain are used. […] Subclones have been selected which can display foreign antigens in an unrecognized form. […] Using these models, the immune response elicited by genetic vaccination against an antigen can be measured.
A DNA construct was designed to test the effectiveness of a genetic vaccine against human p185neu in mice. […] The animal model used was described above. Tumor cells were transfected with DNA encoding neu, confirmed to express the protein and implanted into the animal. Controls included untransfected tumor lines.
Controls included unvaccinated animals and animals administered the p185neu protein.

[2] = tested on: tumor cells transfected with DNA encoding GA733; experiment: Tumor challenge model, tumor cells transfected with DNA encoding GA733
Source text: Using these models, the immune response elicited by genetic vaccination against an antigen can be measured.
A DNA construct was designed to test the effectiveness of a genetic vaccine against human GA733 in mice. […] The animal model used was described above. Tumor cells were transfected with DNA encoding GA733, confirmed to express the protein and implanted into the animal. Controls included untransfected tumor lines.
Genetically immunized animals were vaccinated with plasmid pGA733-2, described in Example 14, following the method described above. Controls included unvaccinated animals and animals administered the GA733 protein.

Molecule	effect on transfected tumors ([1]; neu-transfected tumors, vaccinated mice)	effect on mortality ([1]; vaccinated mice bearing tumors)	effect on transfected tumors ([2]; GA733-transfected tumors, vaccinated mice)	effect on mortality ([2]; vaccinated mice bearing tumors)
p185 protein: p185neu protein administered to control animals	some reduction in tumor size	no effect on mortality	–	–
B1	–	–	some reduction in tumor size	no effect on mortality
